The NIST ThermoML archive (doi:10.1021/je500079y)

Test: wn = mass fraction of the nth substance listed
Conditions: 101 kPa, Liquid, Vibrating tube method

CCOS(=O)(=O)[O-].CCn1cc[n+](C)c1 [1-ethyl-3-methylimidazolium ethyl sulfate] + O=C[C@H](O)[C@@H](O)[C@H](O)[C@H](O)CO
mass density [kg/m3]
Conditions	w2 = 0.046	w2 = 0.059	w2 = 0.097	w2 = 0.134	w2 = 0.154	w2 = 0.18
278.15 K	1260.18	1263.04	1271.43	1279.83	1284.18	1290.02
283.15 K	1256.74	1259.61	1268.01	1276.43	1280.78	1286.63
288.15 K	1253.31	1256.19	1264.58	1273.02	1277.37	1283.21
293.15 K	1249.88	1252.77	1261.19	1269.61	1273.96	1279.8
298.15 K	1246.45	1249.35	1257.81	1266.25	1270.6	1276.37
303.15 K	1243.04	1245.93	1254.43	1262.9	1267.26	1273
308.15 K	1239.63	1242.53	1251.04	1259.54	1263.91	1269.64
313.15 K	1236.25	1239.14	1247.66	1256.17	1260.56	1266.26
318.15 K	1232.88	1235.77	1244.29	1252.82	1257.21	1262.88
323.15 K	1229.52	1232.42	1240.94	1249.47	1253.87	1259.51
328.15 K	1226.18	1229.08	1237.6	1246.13	1250.54	1256.14
333.15 K	1222.86	1225.74	1234.28	1242.81	1247.23	1252.8
338.15 K	1219.54	1222.46	1230.97	1239.5	1243.93	1249.49
343.15 K	1216.24	1219.17	1227.66	1236.2	1240.64	1246.21

O=C(CO)[C@@H](O)[C@H](O)[C@H](O)CO [D-fructose] + CCOS(=O)(=O)[O-].CCn1cc[n+](C)c1
mass density [kg/m3]
Conditions	w1 = 0.069	w1 = 0.104	w1 = 0.171	w1 = 0.248	w1 = 0.266	w1 = 0.307
278.15 K	1265.07	1272.55	1287.93	1306.03	1310.46	1320.13
283.15 K	1261.63	1269.11	1284.51	1302.63	1307.07	1316.76
288.15 K	1258.21	1265.68	1281.07	1299.21	–	1313.36
293.15 K	1254.78	1262.28	1277.63	1295.77	1300.21	1309.93
298.15 K	1251.35	1258.88	1274.21	1292.29	1296.72	1306.43
303.15 K	1247.93	1255.47	1270.78	1288.73	1293.13	1302.82
308.15 K	1244.5	1252.05	1267.3	1285.14	1289.48	1299.08
313.15 K	1241.08	1248.62	1263.76	1281.5	1285.81	1295.34
318.15 K	1237.67	1245.19	1260.19	1277.84	1282.13	1291.62
323.15 K	1234.25	1241.74	1256.61	1274.19	1278.47	1287.95
328.15 K	1230.83	1238.29	1253.07	1270.58	1274.85	1284.29
333.15 K	1227.42	1234.86	1249.57	1267.01	1271.26	1280.66
338.15 K	1224.03	1231.44	1246.09	1263.46	1267.69	1277.05
343.15 K	1220.66	1228.04	1242.65	1259.93	1264.14	1273.45

OC[C@@H](O)[C@@H](O)[C@H](O)[C@@H](O)CO [D-sorbitol] + CCOS(=O)(=O)[O-].CCn1cc[n+](C)c1
mass density [kg/m3]
Conditions	w1 = 0.037	w1 = 0.056	w1 = 0.113	w1 = 0.16	w1 = 0.182	w1 = 0.202
278.15 K	1255.77	1258.66	1267.3	1274.68	1278.11	1281.13
283.15 K	1252.33	1255.52	1263.85	1271.21	1274.65	1277.67
288.15 K	1248.88	1251.77	1260.41	1267.76	1271.19	1274.21
293.15 K	1245.42	1248.33	1256.99	1264.34	1267.76	1270.77
298.15 K	1241.97	1244.88	1253.56	1260.93	1264.36	1267.36
303.15 K	1238.54	1241.45	1250.14	1257.52	1260.96	1263.97
308.15 K	1235.13	1238.04	1246.73	1254.11	1257.55	1260.56
313.15 K	1231.74	1234.65	1243.33	1250.71	1254.15	1257.16
318.15 K	1228.36	1231.27	1239.95	1247.32	1250.77	1253.77
323.15 K	1225	1227.91	1236.59	1243.95	1247.4	1250.4
328.15 K	1221.65	1224.56	1233.25	1240.6	1244.04	1247.03
333.15 K	1218.32	1221.23	1229.92	1237.26	1240.7	1243.69
338.15 K	1215	1217.9	1226.61	1233.93	1237.37	1240.35
343.15 K	1211.69	1214.59	1223.3	1230.62	1234.06	1237.03

OC[C@@H](O)[C@H](O)[C@@H](O)CO [xylitol] + CCOS(=O)(=O)[O-].CCn1cc[n+](C)c1
mass density [kg/m3]
Conditions	w1 = 0.05	w1 = 0.07	w1 = 0.098	w1 = 0.131	w1 = 0.15	w1 = 0.169
278.15 K	1256.32	1258.74	1261.95	1267.09	1269.01	1271.21
283.15 K	1252.87	1255.31	1258.5	1263.64	1265.56	1267.75
288.15 K	1249.41	1251.86	1255.06	1260.2	1262.12	1264.31
293.15 K	1245.95	1248.4	1251.62	1256.76	1258.69	1260.89
298.15 K	1242.51	1244.96	1248.2	1253.33	1255.25	1257.46
303.15 K	1239.07	1241.53	1244.78	1249.9	1251.82	1254.03
308.15 K	1235.66	1238.11	1241.38	1246.49	1248.41	1250.61
313.15 K	1232.27	1234.72	1238.01	1243.08	1245	1247.2
318.15 K	1228.89	1231.34	1234.65	1239.7	1241.62	1243.81
323.15 K	1225.53	1227.97	1231.3	1236.33	1238.25	1240.44
328.15 K	1222.18	1224.62	1227.97	1232.97	1234.89	1237.08
333.15 K	1218.84	1221.29	1224.64	1229.63	1231.55	1233.73
338.15 K	1215.52	1217.96	1221.33	1226.3	–	1230.39
343.15 K	1212.21	1214.65	1218.02	1222.98	–	1227.06
